From patent US8551996B2, “Compounds, compositions, methods of synthesis, and methods of treatment” (Emory University, priority 2009, dated 2013)

Target: T1, CRF-1 receptor (Homo sapiens, UniProt P34998)
T1 construct: expressed in transfected cells; host or cells: HEK293T/17
T1 sequence (P34998 24-415): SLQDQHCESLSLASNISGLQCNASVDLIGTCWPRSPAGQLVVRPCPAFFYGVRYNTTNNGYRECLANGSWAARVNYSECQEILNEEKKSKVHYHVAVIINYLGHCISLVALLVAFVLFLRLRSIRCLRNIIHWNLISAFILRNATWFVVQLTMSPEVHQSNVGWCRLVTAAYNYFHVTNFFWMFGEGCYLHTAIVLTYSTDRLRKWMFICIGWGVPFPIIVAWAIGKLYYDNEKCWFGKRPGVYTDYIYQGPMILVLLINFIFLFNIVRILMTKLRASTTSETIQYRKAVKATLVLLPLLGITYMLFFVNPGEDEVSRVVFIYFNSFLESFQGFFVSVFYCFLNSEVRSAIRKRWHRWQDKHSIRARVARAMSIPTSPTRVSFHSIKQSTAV
Experiment: CRF-1 receptor competitive binding vs. [125I]sauvagine
Details: for Ki: transfected HEK293T/17 cells expressing the CRF-1 receptor, radioligand [125I]sauvagine, read-out: CRF-1 Receptor Binding Affinities (vs. [125I] Sauvagine) Ki; for affinity for the CRF-1 receptor (in words): vs. [125I]sauvagine, only slightly reduced from that found for R121919
Text: Pyrido[2,3-b]pyrazin-2-ones of type VI (Table 1) were synthesized according to the procedure reported by Dzierba, et al., (J. Med. Chem. 2004, 47, 5783-5790) as shown in Scheme 21.

Ki	affinity for the CRF-1 receptor (in words)	Compound
6.2 ± 1.4 nM	high affinity	CCCCN(CC)c1cc(C)nc2c1NC(=O)CN2c1ccc(C)cc1Br [Compound 185, 4-(2-Bromo-4-methylphenyl)-8-(butylethylamino)-6-methyl-3,4-dihydra-1H-pyrido[2,3-b]pyrazin-2-one]
9.1 nM	high affinity	CCCCN(CC)c1cc(C)nc2c1NC(=O)CN2c1ccc(C)cc1C [Compound 191, 8-(Butylethylamino)-4-(2,4-dimethylphenyl)-6-methyl-3,4-dihydro-1H-pyrido[2,3-b]pyrazin-2-one]
5.7 ± 0.3 nM	high affinity	CCCCN(CC)c1cc(C)nc2c1NC(=O)CN2c1ccc(Br)cc1C [Compound 188, 8-(Butylethylamino)-4-(2-methyl-4-bromophenyl)-6-methyl-3,4-dihydro-1H-pyrido[2,3-b]pyrazin-2-one]
